From patent US20090192192A1, “INHIBITORS OF BIOFILM FORMATION OF GRAM-POSITIVE AND GRAM-NEGATIVE BACTERIA” (priority 2007, published 2009)

Test system: Pseudomonas aeruginosa PAO1
Experiment: MBEC assay, biofilm formation of P. aeruginosa PAO1
Type: cell-based
Conditions: compound concentration 100 μM, class symbols
Protocol: The compound to be tested was dissolved in DMSO to obtain a concentration that was 100 times that of the final concentration required (1 mM for the 10 μM assay and 10 mM for the 100 μM assay). 1.5 μL of the above solution was placed into each well of a 96 well plate (final volume in each well=150 μL, final DMSO concentration of 1% (v/v)).
To grow the organism and form a biofilm, a cryogenic stock of the test organism (at −70° C.) was used. A first sub-culture was streaked out onto TSA (tryptic soy agar), upon which the plate was incubated at 35±2° C. for 24 hours and stored wrapped in parafilm at 4° C. afterwards. From this first sub-culture, a second sub-culture was streaked out onto TSA. The plate was incubated at 35±2° C. for 24 hours. The second sub-culture was used within 24 hours starting from the time it was first removed from incubation. Using the second sub-culture an inoculum in 3 mL sterile water that matches a 0.5 McFarland Standard (1.5×10^8 cells per mL) was created in a glass test tube using a sterile cotton swab. 2.2 mL of this solution was diluted in 22 mL 100% TSB (tryptic soy broth) medium to a cell density of approximately […]. The diluted organism was inverted 3-5 times to achieve uniform mixing of the organism. One sample (100 μl) of the diluted organism was used for an inoculum check by serially diluting and spot plating on TSA.
To prepare a challenge plate, […] of the diluted organism was added to each well of a 96 well plate except the sterility control wells. The test compounds were added to the wells to make up final concentrations of 10 μM and […] (1.5 μL/well) in the designated location in the test plate. 128.5 μL of 100% universal neutralizer (1% Tween 80 in Cation Adjusted Mueller Hinton Broth, CAMHB) was placed in each of the wells. 130 μL of media was added to the growth control wells. 128.5 μL of media+1.5 μL of DMSO were added to a second set of growth control wells. 150 μL of media was added to the sterility controls. Each sample was run in triplicate. The plate was covered by a lid with a peg per well and wrapped in parafilm and placed on a shaker in a humidified incubator (GeneVac) at 35±+2° C. for 24 hours set at 110 rpm.
Rinse plate(s) of 0.9% saline (200 μL per well) were prepared in a sterile 96 well microtitre plate. Lid-associated pegs were rinsed in 0.9% saline for approximately 1-2 minutes. The peg lid was transferred to the recovery media (1.0% Tween 80 in CAMHB) then sonicated for 30 minutes to dislodge surviving biofilm. Following sonication, 100 μL from each well of the 96 well plate was placed into the first 12 wells of the first row of a 96 well microtiter plate. 180 μl of 0.9% sterile saline was placed in the remaining rows. A serial dilution (10^0-10^7) was prepared by moving 20 μl down each of the 8 rows. 20 μl from each well was removed and spot plated on a prepared TSA. In the remaining recovery plate, 100 μl of fresh growth media (1.0% Tween 80 in CAMHB) was placed in each well to replace the amount removed. The recovery plate was covered with a regular lid and incubated at 35±2° C. for 24 hours and read visually to confirm antimicrobial activity of the test compounds.
The compounds of the present disclosure have been tested regarding their efficiency to inhibit biofilm formation of Staphylococcus aureus U of C#18 (MRSA), Staphylococcus aureus 456 (MRSA), Staphylococcus epidermidis RP62A, and Pseudomonas aeruginosa PAO1.

For `CCCCCCCCCCNC(=O)Nc1ccnn1CC` [Example 64, 1-decyl-3-(1-ethylpyrazol-5-yl)urea], which inhibition at 100 µM is on record?
The inhibition at 100 µM was 20 to 50%.

`CCCCCCCCCCNC(=O)Nc1cc(C2CC2)n[nH]1` [Example 65, 1-(3-cyclopropylpyrazol-5-yl)-3-decylurea] was tested. Which inhibition at 100 µM did it give?
Its inhibition at 100 µM is over 50%.

With `CCCCCCCCCCNC(=O)Nc1cc(C2CC2)nn1C` [Example 66, 1-(3-cyclopropyl-1-methylpyrazol-5-yl)-3-decylurea] as the compound, how does the inhibition at 100 µM read?
The inhibition at 100 µM was over 50%.

With `CCCCCCCCCCNC(=O)Nc1cc(C2CC2)nn1C(C)=O` [Example 67, 1-(1-acetyl-3-cyclopropylpyrazol-5-yl)-3-decylurea] as the compound, how does the inhibition at 100 µM read?
Its inhibition at 100 µM is over 50%.

Which inhibition at 100 µM does the source give for `CCCCCCCCCCNC(=O)Nc1cc(C(C)(C)C)n[nH]1` [Example 68, 1-(3-tert-butylpyrazol-5-yl)-3-decylurea] here?
Its inhibition at 100 µM is 20 to 50%.

With `CCCCCCCCCCNC(=O)N(C)c1cc(C(C)(C)C)nn1C` [Example 69, 1-(3-tert-butyl-1-methylpyrazol-5-yl)-3-decyl-1-methylurea] as the compound, how does the inhibition at 100 µM read?
Its inhibition at 100 µM is over 50%.

Which inhibition at 100 µM does the source give for `CCCCCCCCCCNC(=O)Nc1cc(C)nn1C(C)(C)C` [Example 70, 1-(1-tert-butyl-3-methylpyrazol-5-yl)-3-decylurea] here?
Its inhibition at 100 µM is over 50%.

For `CCCCCCCCCCNC(=O)Nc1cc(-c2ccccc2)nn1C` [Example 71, 1-decyl-3-(1-methyl-3-phenylpyrazol-5-yl)urea], which inhibition at 100 µM is on record?
Its inhibition at 100 µM is under 20%.

With `CCCCCCCCCCNC(=O)N(C)c1cc(-c2ccccc2)nn1C` [Example 72, 3-decyl-1-methyl-1-(1-methyl-3-phenylpyrazol-5-yl)urea] as the compound, how does the inhibition at 100 µM read?
Its inhibition at 100 µM is 20 to 50%.

Which inhibition at 100 µM does the source give for `CCCCCCCCCCNC(=O)/N=c1/cc(-c2ccccc2)n(C)n1C` [Example 73, 1-decyl-3-(1,2-dimethyl-5-phenylpyrazol-3-ylidene)urea] here?
The inhibition at 100 µM was over 50%.

Which inhibition at 100 µM does the source give for `CCCCCCCCCCNC(=O)Nc1cc(C)nn1-c1ccccc1` [Example 74, 1-decyl-3-(3-methyl-1-phenylpyrazol-5-yl)urea] here?
The inhibition at 100 µM was under 20%.

For `CCCCCCCCCCNC(=O)Nc1nnc(C2CC2)s1` [Example 75, 1-(5-cyclopropyl-1,3,4-thiadiazol-2-yl)-3-decylurea], which inhibition at 100 µM is on record?
The inhibition at 100 µM was 20 to 50%.

How did the inhibition at 100 µM turn out when `CCCCCCCCCCNC(=O)Nc1nnc(C(C)(C)C)s1` [Example 76, 1-(5-tert-butyl-1,3,4-thiadiazol-2-yl)-3-decylurea] was run?
The inhibition at 100 µM was over 50%.

How did the inhibition at 100 µM turn out when `CCCCCCCCCCNC(=O)Nc1nnc(-c2ccccc2)s1` [Example 77, 1-decyl-3-(5-phenyl-1,3,4-thiadiazol-2-yl)urea] was run?
Its inhibition at 100 µM is under 20%.

Which inhibition at 100 µM does the source give for `CCCCCCCCCCNC(=O)Nc1nc(C(C)(C)C)cs1` [Example 78, 1-(4-tert-butylthiazol-2-yl)-3-decylurea] here?
The inhibition at 100 µM was 20 to 50%.

`CCCCCCCCCCNC(=O)Nc1nc(-c2ccccc2)cs1` [Example 79, 1-decyl-3-(4-phenylthiazol-2-yl)urea] was tested. Which inhibition at 100 µM did it give?
Its inhibition at 100 µM is 20 to 50%.

How did the inhibition at 100 µM turn out when `CCCCCCCCCCCNC(=O)Nc1cc(C2CC2)nn1C` [Example 80, 1-(3-cyclopropyl-1-methylpyrazol-5-yl)-3-undecylurea] was run?
Its inhibition at 100 µM is 20 to 50%.

How did the inhibition at 100 µM turn out when `CCCCCCCCCCCNC(=O)Nc1cc(C(C)(C)C)nn1C` [Example 81, 1-(3-tert-butyl-1-methylpyrazol-5-yl)-3-undecylurea] was run?
Its inhibition at 100 µM is over 50%.

For `CCCCCCCCCCCNC(=O)Nc1cc(-c2ccccc2)nn1C` [Example 82, 1-(1-methyl-3-phenylpyrazol-5-yl)-3-undecylurea], which inhibition at 100 µM is on record?
Its inhibition at 100 µM is under 20%.

How did the inhibition at 100 µM turn out when `CCCCCCCCCCCCNC(=O)Nc1cc(C)nn1C` [Example 83, 1-(1,3-dimethylpyrazol-5-yl)-3-dodecylurea] was run?
Its inhibition at 100 µM is 20 to 50%.

How did the inhibition at 100 µM turn out when `CCCCCCCCCCCCNC(=O)Nc1cc(C2CC2)nn1C` [Example 84, 1-(3-cyclopropyl-1-methylpyrazol-5-yl)-3-dodecylurea] was run?
Its inhibition at 100 µM is under 20%.

Which inhibition at 100 µM does the source give for `CCCCCCCCCCCCNC(=O)Nc1cc(C(C)(C)C)nn1C` [Example 85, 1-(3-tert-butyl-1-methylpyrazol-5-yl)-3-dodecylurea] here?
Its inhibition at 100 µM is over 50%.

With `CCCCCCCCCCCCNC(=O)Nc1cc(-c2ccccc2)nn1C` [Example 86, 1-dodecyl-3-(1-methyl-3-phenylpyrazol-5-yl)urea] as the compound, how does the inhibition at 100 µM read?
The inhibition at 100 µM was under 20%.

For `CCCCCCCCCCCCCCNC(=O)Nc1cc(C)nn1C` [Example 87, 1-(1,3-dimethylpyrazol-5-yl)-3-tetradecylurea], which inhibition at 100 µM is on record?
The inhibition at 100 µM was under 20%.

For `CCCCCCCCCCCCCCNC(=O)Nc1cc(C(C)(C)C)nn1C` [Example 88, 1-(3-tert-butyl-1-methylpyrazol-5-yl)-3-tetradecylurea], which inhibition at 100 µM is on record?
The inhibition at 100 µM was over 50%.

With `CCCCCCCCCCCCCCCCNC(=O)Nc1cc(C)nn1C` [Example 89, 1-(1,3-dimethylpyrazol-5-yl)-3-hexadecylurea] as the compound, how does the inhibition at 100 µM read?
The inhibition at 100 µM was under 20%.

With `CCCCCCCCCCCCCCCCNC(=O)Nc1cc(C2CC2)nn1C` [Example 90, 1-(3-cyclopropyl-1-methylpyrazol-5-yl)-3-hexadecylurea] as the compound, how does the inhibition at 100 µM read?
The inhibition at 100 µM was under 20%.

With `CCCCCCCCCCCCCCCCNC(=O)Nc1cc(C(C)(C)C)nn1C` [Example 91, 1-(3-tert-butyl-1-methylpyrazol-5-yl)-3-hexadecylurea] as the compound, how does the inhibition at 100 µM read?
The inhibition at 100 µM was 20 to 50%.

Which inhibition at 100 µM does the source give for `CCCCCCCCCCCCCCCCCCNC(=O)Nc1cc(C)nn1C` [Example 92, 1-(1,3-dimethylpyrazol-5-yl)-3-octadecylurea] here?
Its inhibition at 100 µM is under 20%.

For `CCCCCCCCCCCCCCCCCCNC(=O)Nc1cc(C2CC2)nn1C` [Example 93, 1-(3-cyclopropyl-1-methyrpyrazol-5-yl)-3-octadecylurea], which inhibition at 100 µM is on record?
The inhibition at 100 µM was under 20%.

Which inhibition at 100 µM does the source give for `CCCCCCCCCCCCCCCCCCNC(=O)Nc1cc(C(C)(C)C)nn1C` [Example 94, 1-(3-tert-butyl-1-methylpyrazol-5-yl)-3-octadecylurea] here?
Its inhibition at 100 µM is 20 to 50%.

How did the inhibition at 100 µM turn out when `CCCCCCCCCC(=O)NC(=O)N(C)c1ccc(F)cc1` [Example 95, N-((4-fluorophenyl)(methyl)carbamoyl)decanamide] was run?
Its inhibition at 100 µM is over 50%.

`CCCCCCCCCC(=O)NC(=O)Nc1ccccc1C(F)(F)F` [Example 96, N-(2-(trifluoromethyl)phenylcarbamoyl)decanamide] was tested. Which inhibition at 100 µM did it give?
The inhibition at 100 µM was under 20%.

Which inhibition at 100 µM does the source give for `CCCCCCCCCC(=O)NC(=O)N[C@@H](C)c1ccccc1` [Example 97, (S)-N-(1-phenylethylcarbamoyl)decanamide] here?
Its inhibition at 100 µM is 20 to 50%.

`CCCCCCCCCC(=O)NC(=O)N[C@H](C)c1ccccc1` [Example 98, (R)-N-(1-phenylethylcarbamoyl)decanamide] was tested. Which inhibition at 100 µM did it give?
Its inhibition at 100 µM is over 50%.

With `CCCCCCCCCC(=O)NC(=O)Nc1ccnn1C` [Example 99, N-(1-methylpyrazol-5-ylcarbamoyl)decanamide] as the compound, how does the inhibition at 100 µM read?
Its inhibition at 100 µM is 20 to 50%.

With `CCCCCCCCCC(=O)NC(=O)Nc1cc(C)nn1C` [Example 100, N-(1,3-dimethylpyrazol-5-ylcarbamoyl)decanamide] as the compound, how does the inhibition at 100 µM read?
The inhibition at 100 µM was 20 to 50%.

`CCCCCCCCCC(=O)NC(=O)Nc1cc(C)ns1` [Example 101, N-(3-methylisothiazol-5-ylcarbamoyl)decanamide] was tested. Which inhibition at 100 µM did it give?
Its inhibition at 100 µM is 20 to 50%.

`CCCCCCCCCOCC(=O)N(C)c1ccc(F)cc1` [Example 102, N-(4-fluorophenyl)-N-methyl-2-(nonyloxy)acetamide] was tested. Which inhibition at 100 µM did it give?
The inhibition at 100 µM was 20 to 50%.

How did the inhibition at 100 µM turn out when `CCCCCCCCCOCC(=O)Nc1ccc(F)cc1C(F)(F)F` [Example 103, N-(4-fluoro-2-(trifluoromethyl)phenyl)-2-(nonyloxy)acetamide] was run?
Its inhibition at 100 µM is 20 to 50%.

Which inhibition at 100 µM does the source give for `CCCCCCCCCOCC(=O)N[C@@H](C)c1ccccc1` [Example 104, (S)-2-(nonyloxy)-N-(1-phenylethyl)acetamide] here?
Its inhibition at 100 µM is over 50%.

`CCCCCCCCCOCC(=O)Nc1ccnn1CC` [Example 105, N-(1-ethylpyrazol-5-yl)-2-(nonyloxy)acetamide] was tested. Which inhibition at 100 µM did it give?
The inhibition at 100 µM was over 50%.

`CCCCCCCCCOCC(=O)Nc1cc(C2CC2)nn1C` [Example 106, N-(3-cyclopropyl-1-methylpyrazol-5-yl)-2-(nonyloxy)acetamide] was tested. Which inhibition at 100 µM did it give?
The inhibition at 100 µM was over 50%.

With `CCCCCCCCCOCC(=O)Nc1cc(C(C)(C)C)nn1C` [Example 107, N-(3-tert-butyl-1-methylpyrazol-5-yl)-2-(nonyloxy)acetamide] as the compound, how does the inhibition at 100 µM read?
The inhibition at 100 µM was over 50%.
